{
  "source": "paper PMC2191966",
  "about": "(The Journal of Experimental Medicine, 1995)",
  "key": {"L-Db cells": {"tested_on": "L-Db cells", "assay_type": "cell-based, Murine", "details": "BFA; functional TAP complex; Fig. 6 a"}, "T2-Db cells [1]": {"tested_on": "T2-Db cells", "assay_type": "cell-based", "details": "chloroquine: preincubation 80 μM, infection 60 μM, assay 5 μM; Fig. 6"}, "T2-Db cells [2]": {"tested_on": "T2-Db cells", "experiment": "4-h 51Cr CTL assay, clone F5, T2-Db cells with added synthetic peptide", "assay_type": "cell-based"}, "[3]": {"details": "T2-Db lysate with protease inhibitors; Fig. 5"}, "T2-Kk cells": {"tested_on": "T2-Kk cells", "assay_type": "cell-based", "details": "Kk-restricted anti-[…] line, E:T 10:1, Fig. 9 e"}},
  "data": [
    {"compound": "C[C@H]1CCC/C=C/[C@@H]2C[C@H](O)C[C@H]2[C@H](O)/C=C/C(=O)O1", "note": "[BFA, brefeldin A]", "values": [
      {"measurement": "effect on presentation of L+ and L- polypeptides in L-Db cells", "setting": "L-Db cells", "result": "Inhibition of presentation of both the L+ and L-polypeptides in L-Db cells"}
    ]},
    {"compound": "CCN(CC)CCCC(C)Nc1ccnc2cc(Cl)ccc12", "note": "(stereo not drawn) [chloroquine]", "values": [
      {"measurement": "effect on processing and presentation of L+M364 and L+IMP in T2-Db cells", "setting": "T2-Db cells [1]", "result": "no effect"}
    ]},
    {"compound": "IASNENMDAM [365-374]", "values": [
      {"measurement": "relative potency in sensitizing T2-Db cells for lysis", "setting": "T2-Db cells [2]; relative to 366-374, Fig. 3 a", "result": "followed by 365-374"}
    ]},
    {"compound": "MASNENMDAM [M366-374]", "values": [
      {"measurement": "in vitro degradation after cell lysis", "setting": "[3]", "result": "Little in vitro degradation of M366-374 occurs after cell lysis"}
    ]},
    {"compound": "QIASNENMDAM [364-374]", "values": [
      {"measurement": "loss of potency in sensitizing T2-Db cells for lysis (fold less potent)", "setting": "T2-Db cells [2]; Fig. 3 a", "result": "over 10,000 fold"}
    ]},
    {"compound": "SDYEGRLI", "values": [
      {"measurement": "lowest peptide concentration at which pulsed T2 transfectants are recognized", "setting": "T2-Kk cells", "result": "≤ 0.5", "unit": "nM"}
    ]}
  ]
}
